Test results as given in patent US9221781B2, “Synthesis of polyhydroxy chromenone compounds and their anti-tumor effects” (BEIJING SHENOGEN PHARMA GROUP LTD., priority 2012, dated 2015).
Read-outs that look alike come from different tables or passages of the source.

Assays:
K562 cells = test: Viability of chronic leukemia cells K562 by CellTiter-Glo Luminescent Assay in vitro; assay type: cell-based, human; conditions: 72 hours, read-out: Inhibition of viability of cells in vitro IC50, K562 cells
Protocol: A: Detection of Viability of Chronic Leukemia Cells K562 by CellTiter-Glo® Luminescent Assay In Vitro
(§1) The chronic leukemia cells K562 from ATCC were maintained in IMDM and 10% fetal calf serum at 37° C. in a 5% CO2 atmosphere. The cells were subseeded in a 96-well culture plate at a cencentration of 6×10^3 cells/well.K562 cells were treated with a test compound dissolved in DMSO at the concentration of 0, 0.3 μM, 0.5 μM, 1 μM, 2 μM, 3 μM, 5 μM, 10 μM, 20 μM, 30 μM, 50 μM and 100 μM for 72 hours. Treated cells were examined by CellTiter-Glo® Luminescent Cell Viability Assay Kit (Promega), and luminescence were recorded with Envision.

Daudi cells = test: Inhibition of human B lymphoma Daudi cells by CellTiter-Glo Luminescent Assay in vitro; assay type: cell-based; conditions: 72 hours, read-out: Inhibition of viability of cells in vitro IC50, Daudi cells
Protocol: A: Inhibition of Human B Lymphoma Daudi Cells by CellTiter-Glo® Luminescent Assay In Vitro
as §1, with “Human B Lymphoma Daudi” for “chronic leukemia”, “cells” for “cells K562”, “concentration” for “cencentration”, “cells/well. Human B Lymphoma Daudi” for “cells/well.K562”, “μM,” for “μM, 5 μM,”, “CeliTiter-Glo®” for “CellTiter-Glo®”

HL-60 cells = test: Inhibition of growth of acute myeloblastic leukemia HL-60 cells by MTT method; assay type: cell-based, human; conditions: 72 hours; for inhibition at 1 µM: Homo sapiens, 10^−6M, read-out: The inhibition percentage of cell proliferation by the compounds with a concentration of 10^−6M, HL-60 cells
Protocol: A: Inhibition of Growth of Acute Myeloblastic Leukemia HL-60 Cells by the Compounds Detected by MTT Method
(§2) The acute myeloblastic leukemia HL-60 cells from ATCC were maintained in IMDM and 10% fetal calf serum at 37° C. in a 5% CO2 atmosphere. The cells were subseeded in a 96-well culture plate at a concentration of 6×10^3 cells/well. HL-60 cells were treated with a test compound dissolved in DMSO at the concentration of 0, 10^−4M, 10^−5M, 10^−6M, 10^−7M, 10^−8M for 72 hours. OD value was tested by MTT method, and the inhibition ratio was calculated.

Molt-4 cells = test: Inhibition of growth of acute lymphoblastic leukemia Molt-4 cells by MTT method; assay type: cell-based; conditions: 72 hours; for inhibition at 1 µM: Homo sapiens, 10^−6M, read-out: The inhibition percentage of cell proliferation by the compounds with a concentration of 10^−6M, Molt-4 cells
Protocol: B: Inhibition of Growth of Acute Lymphoblastic Leukemia Molt-4 Cells by the Compounds Detected by MTT Method
as §2, with “lymphoblastic” for “myeloblastic”, “Molt-4” for “HL-60”, “RPMI-1640” for “IMDM”, “cells/well and maintained RPMI-1640 and 10% fetal calf serum at 37° C. 5%CO2 atmosphere. Molt-4” for “cells/well. HL-60”

MDA-MB-231 cells = test: CellTiter-Glo Luminescent Cell Viability Assay on ER-negative breast cancer MDA-MB-231 cells in vitro; assay type: cell-based; conditions: Homo sapiens, 72 hours, read-out: Inhibition of viability of breast cancer cells IC50, MDA-MB-231 cells
Protocol: A: CellTiter-Glo® Luminescent Cell Viability Assay on ER-Negative Breast Cancer MDA-MB-231 In Vitro:
MDA-MB-231 cells were maintained at 37° C., in a 5% CO2 atmosphere in DMEM and 10% fetal calf serum. The cells were placed at a density of 6×10^3 cells per well in a 96-well plate. MDA-MB-231 cells were treated with a test compound dissolved in DMSO at the concentration of 0, 0.3 μM, 0.5 μM, 1 μM, 2 μM, 3 μM, 5 μM, 10 μM, 20 μM, 30 μM, 50 μM and 100 μM for 72 hours. Treated cells were examined under CellTiter-Glo® Luminescent Cell Viability Assay Kit (Promega), and luminescence were recorded with Envision.

MCF7 cells = test: CellTiter-Glo Luminescent Cell Viability Assay on ER-positive breast cancer MCF-7 cells in vitro; assay type: cell-based; conditions: Homo sapiens, 72 hours, read-out: Inhibition of viability of breast cancer cells IC50, MCF7 cells
Protocol: B: CellTiter-Glo® Luminescent Cell Viability Assay on ER-Positive Breast Cancer MCF-7 Cells In Vitro:
MCF7 cells from ATCC were maintained in an Dulbecco's modified Eagle medium (DMEM), and 10% fetal calf serum at 37 in a 5% CO2 atmosphere. Cells were placed at a density of 6×10^3 cells per well in a 96-well plate. MCF 7 cells were treated with a test compound dissolved in DMSO at the concentration of 0, 0.3 μM, 0.5 μM, 1 μM, 2 μM, 3 μM, 5 μM, 10 μM, 20 μM, 30 μM, 50 μM and 100 μM for 72 hours. Treated cells were examined through CellTiter-Glo® Luminescent Cell Viability Assay Kit (Promega), and luminescence were recorded with Envision.

BEL-7402 cells = test: Inhibition of liver cancer cell BEL-7402 in vitro by SRB; assay type: cell-based; conditions: Homo sapiens, 10^−6M, 72 hours, read-out: The inhibition percentage of cell proliferation by the compounds with a concentration of 10^−6M, BEL-7402 cells
Protocol: A: Inhibition of Liver Cancer Cell BEL-7402 In Vitro by the Compounds Detected by SRB
The liver cancer BEL-7402 cells from ATCC were maintained in DMDM, 10% NCS and 50 μg/ml KANA at 37° C. in a 5% CO2 atmosphere, and were subseeded in a 96-well culture plate at a concentration of 6×10^3 cells/well. BEL-7402 cells were treated with a test compound dissolved in DMSO at the concentration of 0, 10^−4M, 10^−5M, 10^−6M, 10^−7M, 10^−8M for 72 hours. OD value was tested by SRB method, and the inhibition percentage was calculated.

Molecule | IC50 (K562 cells) [nM] | IC50 (Daudi cells) [µM] | IC50 (MDA-MB-231 cells) [µM] | IC50 (MCF7 cells) [µM] | IC50 (K562 cells; Homo sapiens) [nM] | IC50 (Daudi cells; Homo sapiens) [µM] | The inhibition percentage of cell proliferation by the compounds with a concentration of 10^−6M, HL-60 cells (HL-60 cells) | The inhibition percentage of cell proliferation by the compounds with a concentration of 10^−6M, Molt-4 cells (Molt-4 cells) | inhibition at 1 µM (HL-60 cells) [%] | inhibition at 1 µM (Molt-4 cells) [%] | inhibition at 1 µM (BEL-7402 cells) [%]
2-(4-fluorophenyl)-3-methoxy-5,7-dihydroxy-8-(3-methyl-2-buten-1-yl)-4H-chromen-4-one [Compound 11] | > 100000 | > 100 |  |  |  |  | NA (NA means no activity, and inhibition percentage by the compound with a concentration of 10^−6M was below 10%.) | NA (NA means no activity, and inhibition percentage by the compound with a concentration of 10^−6M was below 10%.) |  |  | 
CC(C)=CCc1c(O)cc(O)c2c(=O)c(O)c(-c3ccc(F)cc3)oc12 [Compound 2, 2-(4-fluorophenyl)-3,5,7-trihydroxy-8-(3-methyl-2-buten-1-yl)-4H-chromen-4-one] |  |  | > 100 | 3.17 | 6140 | 9.23 |  |  |  | < 10 | 21.8
COc1c(-c2ccc(F)c(F)c2)oc2c(CC=C(C)C)c(O)cc(O)c2c1=O [Compound 10, 2-(3,4-difluorophenyl)-3-methoxy-5,7-dihydroxy-8-(3-methyl-2-buten-1-yl)-4H-chromen-4-one] |  |  | > 100 | 31.5 | > 100000 | 21.8 |  |  |  |  | 17.4
COc1cccc2c1C(=O)c1c(O)c3c(c(O)c1C2=O)C[C@@](O)(C(=O)CO)C[C@@H]3O[C@H]1C[C@H](N)[C@H](O)[C@H](C)O1 [Doxorubicin, reference compound] |  |  |  |  |  |  |  |  | 79 | 90.1 | 55.2
CC(C)=CCc1c(O)cc(O)c2c(=O)c(O)c(-c3ccc(Cl)c(C(F)(F)F)c3)oc12 [Compound 7, 2-(3-trifluoromethyl-4-chlorophenyl)-3,5,7-trihydroxy-8-(3-methyl-2-buten-1-yl)-4H-chromen-4-one] |  |  | 9.3 | 7.54 | 6140 | 4.07 |  |  | < 10 | 57 | 19.8
CC(C)=CCc1c(O)cc(O)c2c(=O)c(O)c(-c3ccc(Cl)c(Cl)c3)oc12 [Compound 6, 2-(3,4-dichlorophenyl)-3,5,7-trihydroxy-8-(3-methyl-2-buten-1-yl)-4H-chromen-4-one] |  |  | 1.88 | 6.85 | 935 | 1.98 |  |  | 61.9 | 67.4 | 14.9

Now from value to molecule, other results behind:

IC50 (K562 cells) [nM] | IC50 (Daudi cells) [µM] | IC50 (MDA-MB-231 cells) [µM] | IC50 (MCF7 cells) [µM] | IC50 (K562 cells; Homo sapiens) [nM] | IC50 (Daudi cells; Homo sapiens) [µM] | Molecule | The inhibition percentage of cell proliferation by the compounds with a concentration of 10^−6M, HL-60 cells (HL-60 cells) | The inhibition percentage of cell proliferation by the compounds with a concentration of 10^−6M, Molt-4 cells (Molt-4 cells) | inhibition at 1 µM (HL-60 cells) [%] | inhibition at 1 µM (Molt-4 cells) [%] | inhibition at 1 µM (BEL-7402 cells) [%]
 |  | > 100 | > 100 |  |  | COc1c(-c2ccc(C(F)(F)F)cc2)oc2c(CC=C(C)C)c(O)cc(O)c2c1=O [Compound 9, 2-(4-trifluoromethylphenyl)-3-methoxy-5,7-dihydroxy-8-(3-methyl-2-buten-1-yl)-4H-chromen-4-one] |  |  | < 10 | < 10 | 11.7
 |  | 2.87 | 8.6 | 1850 | 2.91 | CC(C)=CCc1c(O)cc(O)c2c(=O)c(O)c(-c3ccc(Cl)c(F)c3)oc12 [Compound 3, 2-(3-fluoro-4-chlorophenyl)-3,5,7-trihydroxy-8-(3-methyl-2-buten-1-yl)-4H-chromen-4-one] |  |  | 28.5 | 14.4 | 28.6
 | 10 |  |  |  |  | Nc1ccn([C@@H]2O[C@H](CO)[C@@H](O)[C@@H]2O)c(=O)n1 [cytarabinen, reference compound] |  |  |  |  | 
 |  | 4.33 | 16 | 974 | 2.64 | CC(C)=CCc1c(O)cc(O)c2c(=O)c(O)c(-c3ccc(Cl)cc3)oc12 [Compound 4, 2-(4-chlorophenyl)-3,5,7-trihydroxy-8-(3-methyl-2-buten-1-yl)-4H-chromen-4-one] |  |  | 0.974 | 14.7 | 46.4
 |  | 4.48 | 6.85 | 1480 | 1.49 | CC(C)=CCc1c(O)cc(O)c2c(=O)c(O)c(-c3ccc(OC(F)(F)F)cc3)oc12 [Compound 5, 2-(4-trifluoromethoxyphenyl)-3,5,7-trihydroxy-8-(3-methyl-2-buten-1-yl)-4H-chromen-4-one] |  |  | 59.8 | 69.4 | 15.6
